The structures appear in SMILES notation. Structures can show the parent of a compound that is named as a salt. Where two headings read alike, the source gives them in different places.

Common to all, as to type: cell-based
Experiment [1] has as its system K. pneumoniae A. The experiment in a line: In vitro MIC, Broth Dilution Method, K. pneumoniae A. The following applies: Klebsiella pneumoniae. (In general: Dilution methods test growth across graded concentrations, often in twofold steps.)
In experiment [2] the test system is S. marcescens SM. Kind of experiment: In vitro MIC, Broth Dilution Method, S. marcescens SM. The following applies: Serratia marcescens. An excerpt:
(§1) The in vitro activity of the compounds of the present invention as measured by the Minimum Inhibitory Concentration in micrograms/ml utilizing the Agar Well Diffusion Method or Broth Dilution Method against a variety of Gram-positive and Gram-negative organisms is as follows:
(§2) In vitro MIC (μg/ml) Broth Dilution Method

In experiment [3] the test system is S. aureus Smith. The experiment in a line: In vitro MIC, Broth Dilution Method, S. aureus Smith. The settings on record: Staphylococcus aureus.
The test system of experiment [4] is P. aeruginosa Stone 130. The experiment in a line: In vitro MIC, Broth Dilution Method, P. aeruginosa Stone 130. The following applies: Pseudomonas aeruginosa, STONE130.
Source text: as §1, §2

For experiment [5], the system named is E. coli 48. The experiment in a line: In vitro MIC, Broth Dilution Method, E. coli 48. The settings on record: Escherichia coli.
Experiment [6] deals with E. cloacae 7099. The experiment in a line: In vitro MIC, Broth Dilution Method, E. cloacae 7099. The following applies: Enterobacter cloacae.
The test system of experiment [7] is E. cloacae 214. The experiment in a line: In vitro MIC, Broth Dilution Method, E. cloacae 214. The following applies: Enterobacter cloacae.
Source text: as §1, §2

Experiment [8] relates to P. mirabilis 190. The experiment in a line: In vitro MIC, Broth Dilution Method, P. mirabilis 190. The settings on record: Proteus mirabilis.
The subject of experiment [9] is P. vulgaris ATCC 6380. The experiment in a line: In vitro MIC, Broth Dilution Method, P. vulgaris ATCC 6380. The settings on record: Proteus vulgaris.
Source text: as §1, §2

In experiment [10] the test system is P. aeruginosa 503-56. Kind of experiment: In vitro MIC, Broth Dilution Method, P. aeruginosa 503-56. The following applies: Pseudomonas aeruginosa, 50356.
Source text: as §1, §2

The subject of experiment [11] is E. cloacae 9570A. The experiment in a line: In vitro MIC, Broth Dilution Method, E. cloacae 9570A. The following applies: Enterobacter cloacae.
Source text: as §1, §2

For experiment [12], the system named is E. cloacae 948-1. The experiment in a line: In vitro MIC, Broth Dilution Method, E. cloacae 948-1. The settings on record: Enterobacter cloacae, 9481.
Source text: as §1, §2

Experiment [13] deals with S. aureus 95. Kind of experiment: In vitro MIC, Broth Dilution Method, S. aureus 95. The settings on record: Staphylococcus aureus.
Source text: as §1, §2

Experiment [14] relates to E. cloacae 2367-2. The experiment in a line: In vitro MIC, Broth Dilution Method, E. cloacae 2367-2. The following applies: Enterobacter cloacae, 23672.
Source text: as §1, §2

Setting [15] is: ATCC6380, P. vulgaris ATCC 6380, Broth Dilution Method, read-out: In vitro MIC.

As a reminder, the MIC is the smallest concentration in the dilution series that meets the test's criterion for growth inhibition. Take `CCn1cc(C(=O)OCC2=C(C(=O)O)N3C(=O)[C@@H](NC(=O)COc4ccccc4)[C@H]3SC2)c(=O)c2ccc(C)nc21` [Compound A, [6R-(6alpha,7beta)]-3-[[[(1-Ethyl-1,4-dihydro-7-methyl-4-oxo-1,8-naphthydrin-3-yl)carbonyl]oxy]methyl]-8-oxo-7-[(phenoxyacetyl)amino]-5-thia-1-azabicyclo[4.2.0]oct-2-ene-2-carboxylic acid hydrate]: the minimal inhibitory concentration (MIC) in experiment [1] is 16 µg/mL; in experiment [2], 16 µg/mL; in [3], 0.25 µg/mL; in experiment [4], 128 µg/mL; in [5], 32 µg/mL; in [6], 16 µg/mL. Also, the MIC worked out at 128 µg/mL in [7]; 8 µg/mL in experiment [8]; 8 µg/mL in experiment [9] (setting [15]); 128 µg/mL in experiment [10]; 64 µg/mL in [11].
On to `CCn1cc(C(=O)OCC2=C(C(=O)O)N3C(=O)[C@@H](NC(=O)COc4ccccc4)[C@H]3SC2)c(=O)c2cc3c(cc21)OCO3` [Compound B, [6R-(6alpha,7beta)]-3-[[[(5-Ethyl-5,8-dihydro-8-oxo-1,3-dioxolo[4,5-g]quinolin-7-yl)carbonyl]oxy]methyl]-8-oxo-7-[(phenoxyacetyl)amino]-5-thia-1-azabicyclo[4.2.0]oct-2-ene-2-carboxylic acid monosodium salt], for which the MIC in experiment [1] came to 1 µg/mL; in [2], 1 µg/mL; in [3] it was 0.25 µg/mL; in experiment [12], 2 µg/mL; in [4], 32 µg/mL; in experiment [5] it was 2 µg/mL. The MIC in experiment [7] was 2 µg/mL; in experiment [13] it was 4 µg/mL; in experiment [9] (setting [15]), 0.5 µg/mL; in [10], 64 µg/mL; in [14] it was 1 µg/mL; in [11] it was 2 µg/mL.
Consider `CCn1cc(C(=O)OCC2=C(C(=O)O)N3C(=O)[C@@H](NC(=O)/C(=N\OC)c4csc(N)n4)[C@H]3SC2)c(=O)c2ccc(C)nc21` [Compound C, [6R-(6alpha,7beta)(Z)]-7-[[(2-Amino-4-thiazolyl) (methoxyimino)acetyl]amino]-3-[[[(1-ethyl-1,4-dihydro-7-methyl-4-oxo-1,8-naphthyridin-3-yl)carbonyl]oxy]methyl]-8-oxo-5-thia-1-azabicyclo [4.2.0]oct-2-ene-2-carboxylic acid sodium salt], for which the MIC in [2] is 1 µg/mL; in [3], 2 µg/mL; in [12] it was 8 µg/mL; in experiment [4], 128 µg/mL; in experiment [5] it was 0.5 µg/mL; in experiment [6], 8 µg/mL. In addition, the MIC was 8 µg/mL in [7]; 0.16 µg/mL in [8]; 8 µg/mL in experiment [13]; 0.25 µg/mL in experiment [9] (setting [15]); 128 µg/mL in experiment [10]; 16 µg/mL in experiment [14]. This compound also gave an MIC in experiment [11] of 2 µg/mL.
With `CCn1cc(C(=O)OCC2=C(C(=O)O)N3C(=O)[C@@H](NC(=O)/C(=N\OC)c4csc(N)n4)[C@H]3SC2)c(=O)c2cc3c(cc21)OCO3` [Compound D, [6R-(6alpha,7beta)(Z)]-7-[[(2-Amino-4-thiazolyl) (methoxyimino)acetyl]amino]-3-[[[(5-ethyl-5,8-dihydro-8-oxo-1,3-dioxolo[4,5-g]quinolin-7-yl)carbonyl]oxy]methyl]-8-oxo-5-thia-1-azabicyclo [4.2.0]oct-2-ene-2-carboxylic acid sodium salt], the MIC stood at 0.5 µg/mL in experiment [2]; 2 µg/mL in experiment [3]; 1 µg/mL in [12]; 16 µg/mL in experiment [4]; 0.5 µg/mL in [6]; 0.5 µg/mL in experiment [7]. Also, the MIC in experiment [8] worked out at 0.008 µg/mL; in [13], 4 µg/mL; in [9] (ATCC6380, read-out: In vitro MIC), 0.063 µg/mL; in experiment [10], 32 µg/mL; in experiment [14] it was 2 µg/mL; in [11] it was 1 µg/mL.
Regarding `CCn1cc(C(=O)OCC2=C(C(=O)O)N3C(=O)[C@@H](NC(=O)COc4ccccc4)[C@H]3SC2)c(=O)c2cc(F)c(N3CCN(C=O)CC3)cc21` [Compound E, [6R-(6alpha,7beta)]-3-[[[[1-Ethyl-6-fluoro-1,4-dihydro-7-(4-formyl-1-piperazinyl)-4-oxo-quinolin-3-yl]-carbonyl]oxy]methyl-8-oxo-7-[(phenoxyacetyl)amino]-5-thia-1-azabicyclo[4.2.0]oct-2-ene-2-carboxylic acid sodium salt], the MIC in experiment [1] stood at 2 µg/mL; in [2] it was 4 µg/mL; in [3], 0.063 µg/mL; in experiment [12] it was 8 µg/mL; in experiment [4], 16 µg/mL; in experiment [6], 2 µg/mL. Further, the MIC was 8 µg/mL in experiment [7]; 0.5 µg/mL in experiment [8]; 2 µg/mL in experiment [13]; 4 µg/mL in experiment [9] (setting [15]); 32 µg/mL in experiment [10]; 4 µg/mL in experiment [14]. In addition, the minimal inhibitory concentration (MIC) in [11] came to 8 µg/mL.
`CCn1cc(C(=O)OCC2=C(C(=O)O)N3C(=O)[C@@H](NC(=O)Cc4cccs4)[C@H]3SC2)c(=O)c2cc3c(cc21)OCO3` [Compound F, [6R-(6alpha,7beta)]-3-[[[(5-Ethyl-5,8-dihydro-8-oxo-1,3-dioxolo[4,5-g]quinolin-7-yl)carbonyl]oxy]methyl]-8-oxo-7-[(2-thienylacetyl)amino]-5-thia-1-azabicyclo-[4.2.0]oct-2-ene-2-carboxylic acid sodium salt]: the MIC in experiment [1] is 1 µg/mL; in experiment [2], 1 µg/mL; in experiment [12], 1 µg/mL; in experiment [4], 32 µg/mL; in [5], 2 µg/mL; in experiment [7], 2 µg/mL. The MIC came out at 0.5 µg/mL in experiment [8]; 4 µg/mL in [13]; 0.5 µg/mL in experiment [9] (setting [15]); 64 µg/mL in experiment [10]; 1 µg/mL in experiment [14]; 2 µg/mL in [11].
On to `CCn1cc(C(=O)OCC2=C(C(=O)O)N3C(=O)[C@@H](NC(=O)Cc4cccs4)[C@H]3SC2)c(=O)c2cc(F)c(N3CCN(C=O)CC3)cc21` [Compound G, [6R-(6alpha,7beta)]-3-[[[[1-Ethyl-6-fluoro-1,4-dihydro-7-(4-formyl-1-piperazinyl)-4-oxoquinolin-3-yl]-carbonyl]oxy]methyl]-7-[(2-thienylacetyl)amino]-5-thia-1-azabicyclo[4.2.0]oct-2-ene-2-carboxylic acid sodium salt], for which the minimum inhibitory concentration (MIC) in [1] is 4 µg/mL; in experiment [2], 4 µg/mL; in experiment [3], 0.25 µg/mL; in experiment [12], 8 µg/mL; in experiment [4] it was 32 µg/mL; in [5] it was 8 µg/mL. The MIC turned out to be 2 µg/mL in experiment [6]; 64 µg/mL in [7]; 4 µg/mL in [8]; 4 µg/mL in [13]; 4 µg/mL in [9] (setting [15]); 64 µg/mL in [10]. The results for the MIC in experiment [14] and in experiment [11] were 32 µg/mL and 8 µg/mL, respectively.
Consider `CCn1cc(C(=O)OCC2=C(C(=O)O)N3C(=O)[C@@H](NC(=O)COc4ccccc4)[C@H]3SC2)c(=O)c2cc(F)c(N3CCCC3)cc21` [Compound H, [6R-(6alpha,7beta)]-3-[[[[1-Ethyl-6-fluoro-1,4-dihydro-7-(1-pyrrolidinyl)-4-oxo-quinolin-3-yl]carbonyl]oxy]methyl]-8-oxo-7-[(phenoxyacetyl)amino]-5-thia-1-azabicyclo[4.2.0]oct-2-ene-2-carboxylic acid sodium salt], for which the MIC is 32 µg/mL in [1]; 32 µg/mL in experiment [2]; 0.25 µg/mL in [3]; 32 µg/mL in experiment [12]; 32 µg/mL in [4]; 32 µg/mL in [5]. The MIC came out at 2 µg/mL in experiment [6]; 32 µg/mL in experiment [7]; 0.5 µg/mL in [8]; 0.5 µg/mL in experiment [13]; 32 µg/mL in [9] (setting [15]); 64 µg/mL in experiment [10]. Also, the minimum inhibitory concentration (MIC) in experiment [14] and in [11] was 32 µg/mL throughout.
As to `CCn1cc(C(=O)OCC2=C(C(=O)O)N3C(=O)[C@@H](NC(=O)/C(=N\OC)c4csc(N)n4)[C@H]3SC2)c(=O)c2cc(F)c(N3CCCC3)cc21` [Compound I, [6R-(6alpha,7beta)(Z)]-7-[[(2-Amino-4-thiazolyl) (methoxyimino)acetyl]amino]-3-[[[[1-ethyl-6-fluoro-1,4-dihydro-7-(1-pyrrolidinyl)-4-oxoquinolin-3-yl]-carbonyl]oxy]methyl]-8-oxo-5-thia-1-azabicyclo[4.2.0]oct-2-ene-2-carboxylic acid sodium salt], the minimum inhibitory concentration (MIC) in experiment [1] was 0.5 µg/mL; in experiment [2], 1 µg/mL; in experiment [3], 0.25 µg/mL; in experiment [12], 4 µg/mL; in [4] it was 8 µg/mL; in experiment [5] it was 0.5 µg/mL. Also, the MIC in experiment [6] was 2 µg/mL; in experiment [7], 4 µg/mL; in experiment [8], 0.031 µg/mL; in experiment [13], 0.5 µg/mL; in experiment [9] (setting [15]), 0.5 µg/mL; in experiment [10], 32 µg/mL. Also, the MIC amounted to 4 µg/mL in experiment [14] and 2 µg/mL in [11].

Source of the values: US5147871A, “Anti-bacterial cephalosporin compounds” (Hoffmann La-Roche, Inc., priority 1991, dated 1992).
